Experimental data taken from patent publication US4666931A, “Benzofuran derivatives useful in treating diabetic complications” (Kaken Pharmaceutical Co., Ltd., priority 1984, dated 1987).
Like-named read-outs stand apart in the source and are kept apart here. Each block holds one molecule with its values, some of them ahead of it.

Columns and labels:
[1] = biological target: T1, aldose reductase from rat lens (Rattus norvegicus, UniProt P07943); test: Aldose reductase inhibiting activity; assay type: biochemical; conditions: DL-glyceraldehyde substrate, Table 2, read-out: IC50 (50% inhibition concentration in M)
T1 construct: the supernatant was prepared as the crude enzyme solution; from tissue; host or cells: lens of male Wistar rats, 10,000 g supernatant of homogenate (crude enzyme)
Method: Wistar male rats were sacrificed by decapitation and the lenses were taken out to be homogenized with a 0.1M phosphate buffer [pH 6.8, containing 1 mM of mercaptoethanol and 1 mM of nicotinamide-adenine dinucleotide phosphate (NADP)]. The homogenate was then centrifuged at 10,000 g for 15 minutes and the supernatant was prepared as the crude enzyme solution.

[2] = system: aggregation of the washed rabbit platelet by thrombin; test: Platelet aggregation inhibiting activity (washed rabbit platelet, thrombin); assay type: cell-based; conditions: for IC50: Oryctolagus cuniculus, Platelet; for platelet aggregation inhibiting activity relative to Persantin: compared with Persantin (dipyridamole)
Method: Blood samples were collected from the auricular blood vessel of rabbits (white local breed), and washed platelets were prepared therefrom by the method of Baenziger et al. (N. L. Baenziger and P. W. Majerus, Methods Enzymol., 31, 149 to 155 (1974). The platelets were suspended in a 15 mM Tris-hydrochloric acid buffer with a final concentration of 6×10^8 cells/ml (Tris: tris(hydroxymethyl)aminomethane). Each test compound of the compound Nos. 5, 8, 9, 11, 23, 29, 30 and 33 and Persantin® was added thereto and incubation was carried out at 37° C. for 2 minutes. Then the platelets were stimulated by addition of thrombin (0.2 unit/ml of final concentration; made by Mochida Pharmaceutical Co.) and the aggregation inhibiting activity was estimated by the observation of the aggregation reaction using an aggregometer (made by Briston Co.).
The results are shown in Table 3 in terms of IC50 (50% inhibiton concentration in M).

cyclooxygenase = test: Cyclooxygenase inhibition: malondialdehyde production from arachidonic acid, 9000 G supernatant of lung homogenate from guinea pig; assay type: biochemical; conditions: guinea pig lung 9000 G supernatant, compared with aspirin
Method: Lung from guinea pig was washed with physiological saline and homogenized in 0.1M Tris-hydrochloric acid buffer to prepare a supernatant by cooled centrifugation (9000 G).
The inhibiting activity against cyclooxygenase was measured by using the 9000 G supernatant as a source of cyclooxygenase in the presence of 1 mM epinephiline.

[3] = system: production of malondialdehyde from arachidonic acid by rabbit platelets; test: Arachidonic acid metabolism inhibiting activity: production of malondialdehyde from arachidonic acid by rabbit platelets; assay type: cell-based; conditions: Oryctolagus cuniculus, Platelet, arachidonic acid 0.2 mM, read-out: concentration showing 50% inhibition against the production of malondialdehyde from arachidonic acid
Method: Washed rabbit platelets prepared as in the platelet aggregation inhibiting activity test were suspended in 15 mM Tris-hydrochloric acid buffer with a final concentration of 1×10^8 cell/ml, to which each test compound of the compound Nos. 8, 13, 14, 19, 20, 23, 29, 30 and 33 were added and the resultant was preincubated at 37° C. for five minutes. Then arachidonic acid (a final concentration: 0.2 mM, made by Sigma Chemical Co.) was added thereto and the mixture was preincubated for 1 minute. An amount of the produced malondialdehyde was measured according to the thiobarbiturates method (Ed. Aoki and Shibata, Ketsuekigaku Kenkyukensaho, P 441 to 447).

mice = test: Acute toxicity test in mice (oral); conditions: mice, oral, up to 3 g/kg
Method: (§1) Acute toxicity test in mice was carried out on the benzofuran derivatives of the compound Nos. 3, 5, 9, 21, 23, 26, 29 and 34.

[4] = Acute toxicity test in mice (oral); conditions: mouse, in vivo, po
Method: as §1

[5] = range for nine compounds, read-out: concentration showing 50% inhibition against the aggregation of the washed rabbit platelet by thrombin
[6] = washed rabbit platelets, thrombin 0.2 unit/ml, 37° C., Table 3, read-out: IC50 (50% inhibition concentration in M)

SMILES: CCCCOc1ccc(S(=O)(=O)NCC(=O)O)c2cc(C(C)=O)oc12 [Compound 4, 2-acetyl-4-(N-carboxymethylsulfamoyl)-7-n-butoxybenzofuran]
IC50 [1]: 40 nM

SMILES: CC(=O)c1cc2c(S(=O)(=O)N(CC(=O)O)Cc3ccccc3)ccc(OCc3ccccc3)c2o1 [Compound 35, 2-acetyl-4-(N-benzyl-N-carboxymethylsulfamoyl)-7-benzyloxybenzofuran]
IC50 [1]: 700 nM

SMILES: CCCCOc1ccc(S(=O)(=O)N(C)C(C)C(=O)O)c2cc(C(C)=O)oc12 (stereo not shown) [Compound 10, 2-acetyl-4-(N-methyl-N-(1-carboxyethyl)sulfamoyl)-7-n-butoxybenzofuran]
IC50 [1]: 7000 nM
IC50 [2, 5]: 20000 to 200000 nM
IC50 [2, 6]: 160000 nM
platelet aggregation inhibiting activity relative to Persantin [2]: equivalent to or more than

SMILES: COc1ccc(COc2ccc(S(=O)(=O)NCC(=O)O)c3cc(C(C)=O)oc23)cc1 [Compound 24, 2-acetyl-4-(N-carboxymethylsulfamoyl)-7-p-methoxybenzyloxybenzofuran]
IC50 [1]: 30 nM

SMILES: O=C(O)CNS(=O)(=O)c1ccc(OCC(=O)O)c2oc(C(=O)O)cc12 [Compound 12, 2-carboxy-4-(N-carboxymethylsulfamoyl)-7-(carboxymethoxy)benzofuran]
IC50 [1]: 200 nM

SMILES: COc1ccc(COc2ccc(S(=O)(=O)N(CC(=O)O)Cc3ccc(OC)cc3)c3cc(C(C)=O)oc23)cc1 [Compound 33, 2-acetyl-4-(N-p-methoxybenzyl-N-carboxymethylsulfamoyl)-7-p-methoxybenzyloxybenzofuran]
IC50 [1]: 800 nM
inhibition against malondialdehyde production relative to aspirin (cyclooxygenase): equivalent to or more than
IC50 [2, 5]: 20000 to 200000 nM
IC50 [2, 6]: 20000 nM
platelet aggregation inhibiting activity relative to Persantin [2]: equivalent to or more than
IC50 [3]: 10000 to 100000 nM

SMILES: COc1ccc(S(=O)(=O)NCC(=O)O)c2cc(C(=O)O)oc12 [Compound 13, 2-carboxy-4-(N-carboxymethylsulfamoyl)-7-methoxybenzofuran]
IC50 [1]: 100 nM
inhibition against malondialdehyde production relative to aspirin (cyclooxygenase): equivalent to or more than
IC50 [3]: 10000 to 100000 nM

SMILES: CCc1oc2ccc([N+](=O)[O-])cc2c1S(=O)(=O)NCC(=O)O [Compound 21, 2-ethyl-3-(N-carboxymethylsulfamoyl)-5-nitrobenzofuran]
IC50 [1]: 50 nM
death up to the dose of 3 g/kg body weight (mice): no death
LD50 at 336 h [4]: > 3000 mg/kg

SMILES: COc1ccc(S(=O)(=O)NCC(=O)O)c2cc(C3(C)NC(=O)NC3=O)oc12 (stereo not shown) [Compound 19, 2-(4-methyl-2,5-dioxoimidazolidine-4-yl)-4-(N-carboxymethylsulfamoyl)-7-methoxybenzofuran]
IC50 [1]: 2000 nM
inhibition against malondialdehyde production relative to aspirin (cyclooxygenase): equivalent to or more than
IC50 [3]: 10000 to 100000 nM

SMILES: CC(=O)c1cc2c(S(=O)(=O)NCC(=O)O)ccc(OCC#N)c2o1 [Compound 27, 2-acetyl-4-(N-carboxymethylsulfamoyl)-7-cyanomethyloxybenzofuran]
IC50 [1]: 100 nM

SMILES: CC(=O)c1cc2c(S(=O)(=O)NCC(=O)O)ccc(OCC(=O)O)c2o1 [Compound 8, 2-acetyl-4-(N-carboxymethylsulfamoyl)-7-(carboxymethoxy)benzofuran]
IC50 [1]: 200 nM
inhibition against malondialdehyde production relative to aspirin (cyclooxygenase): equivalent to or more than
IC50 [2, 5]: 20000 to 200000 nM
IC50 [2, 6]: 130000 nM
platelet aggregation inhibiting activity relative to Persantin [2]: equivalent to or more than
IC50 [3]: 10000 to 100000 nM

SMILES: CCCCOc1ccc(S(=O)(=O)NC(C)C(=O)O)c2cc(C(C)=O)oc12 (stereo not shown) [Compound 11, 2-acetyl-4-(N-(1-carboxyethyl)sulfamoyl)-7-n-butoxybenzofuran]
IC50 [1]: 5000 nM
IC50 [2, 5]: 20000 to 200000 nM
IC50 [2, 6]: 160000 nM
platelet aggregation inhibiting activity relative to Persantin [2]: equivalent to or more than

SMILES: OCCN(CCO)c1nc(N2CCCCC2)c2nc(N(CCO)CCO)nc(N3CCCCC3)c2n1 [Persantin ®, dipyridamole, reference compound]
IC50 [2, 6]: 200000 nM

SMILES: CCCCCCCOc1ccc(S(=O)(=O)NCC(=O)O)c2cc(C(C)=O)oc12 [Compound 7, 2-acetyl-4-(N-carboxymethylsulfamoyl)-7-n-heptyloxybenzofuran]
IC50 [1]: 30 nM
IC50 [2, 6]: 150000 nM

SMILES: COc1c(S(=O)(=O)NCC(=O)O)cc(S(=O)(=O)NCC(=O)O)c2cc(C3(C)NC(=O)NC3=O)oc12 (stereo not shown) [Compound 20, 2-(4-methyl-2,5-dioxoimidazolidine-4-yl)-4,6-di(N-carboxymethylsulfamoyl)-7-methoxybenzofuran]
IC50 [1]: 300 nM
inhibition against malondialdehyde production relative to aspirin (cyclooxygenase): equivalent to or more than
IC50 [3]: 10000 to 100000 nM

SMILES: CC(=O)c1cc2c(S(=O)(=O)NCC(=O)O)ccc(OCc3ccc(Cl)cc3)c2o1 [Compound 30, 2-acetyl-4-(N-carboxymethylsulfamoyl)-7-p-chlorobenzyloxybenzofuran]
IC50 [1]: 40 nM
inhibition against malondialdehyde production relative to aspirin (cyclooxygenase): equivalent to or more than
IC50 [2, 5]: 20000 to 200000 nM
IC50 [2, 6]: 30000 nM
platelet aggregation inhibiting activity relative to Persantin [2]: equivalent to or more than
IC50 [3]: 10000 to 100000 nM

Other lines, results leading:

IC50 [1]: 50 nM
SMILES: C=CCOc1ccc(S(=O)(=O)NCC(=O)O)c2cc(C(C)=O)oc12 [Compound 31, 2-acetyl-4-(N-carboxymethylsulfamoyl)-7-allyloxybenzofuran]

IC50 [1]: 100 nM
SMILES: CCOc1ccc(S(=O)(=O)NCC(=O)O)c2cc(C(C)=O)oc12 [Compound 2, 2-acetyl-4-(N-carboxymethylsulfamoyl)-7-ethoxybenzofuran]

IC50 [1]: 50 nM
SMILES: CCCCCCOc1ccc(S(=O)(=O)NCC(=O)O)c2cc(C(C)=O)oc12 [Compound 6, 2-acetyl-4-(N-carboxymethylsulfamoyl)-7-n-hexyloxybenzofuran]

IC50 [1]: 200 nM
SMILES: COc1ccc(S(=O)(=O)NCC(=O)O)c2cc(C(C)=O)oc12 [Compound 1, 2-acetyl-4-(N-carboxymethylsulfamoyl)-7-methoxybenzofuran]

IC50 [1]: 400 nM
SMILES: CCC(C)c1ccc(S(=O)(=O)NCC(=O)O)c2cc(C(C)=O)oc12 (stereo not shown) [Compound 16, 2-acetyl-4-(N-carboxymethylsulfamoyl)-7-sec-butylbenzofuran]

IC50 [1]: 80 nM
SMILES: CC(=O)c1cc2c(S(=O)(=O)NCC(=O)O)ccc(O)c2o1 [Compound 28, 2-acetyl-4-(N-carboxymethylsulfamoyl)-7-hydroxybenzofuran]

IC50 [1]: 5000 nM
SMILES: COc1ccc(S(=O)(=O)NCC(=O)O)c2oc(C(C)=O)cc12 [Compound 18, 2-acetyl-4-methoxy-7-(N-carboxymethylsulfamoyl)benzofuran]

IC50 [1]: 70 nM
inhibition against malondialdehyde production relative to aspirin (cyclooxygenase): equivalent to or more than
IC50 [3]: 10000 to 100000 nM
SMILES: CCOc1ccc(S(=O)(=O)NCC(=O)O)c2cc(C(=O)O)oc12 [Compound 14, 2-carboxy-4-(N-carboxymethylsulfamoyl)-7-ethoxybenzofuran]

IC50 [1]: 500 nM
SMILES: CC(=O)c1cc2c(S(=O)(=O)NCC(=O)O)ccc(C)c2o1 [Compound 15, 2-acetyl-4-(N-carboxymethylsulfamoyl)-7-methylbenzofuran]

IC50 [1]: 200 nM
SMILES: CC(=O)c1cc2c(S(=O)(=O)NCC(=O)O)ccc(OCC(C)Cl)c2o1 (stereo not shown) [Compound 25, 2-acetyl-4-(N-carboxymethylsulfamoyl)-7-(2-chloropropyloxy)benzofuran]

IC50 [1]: 2000 nM
SMILES: CC(=O)c1cc2c(S(=O)(=O)NCC(=O)O)c3c(cc2o1)OCO3 [Compound 17, 2-acetyl-4-(N-carboxymethylsulfamoyl)-5,6-methylenedioxybenzofuran]

IC50 [1]: 50 nM
SMILES: CCc1oc2ccc(NC(C)=O)cc2c1S(=O)(=O)NCC(=O)O [Compound 22, 2-ethyl-3-(N-carboxymethylsulfamoyl)-5-acetylaminobenzofuran]

IC50 [1]: 30 nM
SMILES: C=CCCOc1ccc(S(=O)(=O)NCC(=O)O)c2cc(C(C)=O)oc12 [Compound 32, 2-acetyl-4-(N-carboxymethylsulfamoyl)-7-(3-butenyloxy)benzofuran]
